# Where a name gives a salt, the structure may show the parent alone.
# Legend:
# DYRK1A = target: T1, DYRK1A (Homo sapiens, UniProt Q13627); experiment: DYRK1A in vitro kinase assay (ADP-Glo); type: biochemical; details: ATP 70 μM (Km), substrate 3 μM, enzyme 2 nM or 0.7 nM, 30 min, rt
# T1 construct: purchased Carna Bioscence (Carna Biosciences) 04-130
# DYRK1B = target: T2, DYRK1B (Homo sapiens, UniProt Q9Y463); experiment: DYRK1B in vitro kinase assay (ADP-Glo); type: biochemical; details: ADP-Glo assay, ATP 15 μM (Km), substrate 7 μM, enzyme 1 nM or 0.3 nM, 1 h, rt; read-out: DYRK1B IC50
# T2 construct: purchased Carna Bioscence (Carna Biosciences) 04-131
# T2 sequence (Q9Y463 whole entry): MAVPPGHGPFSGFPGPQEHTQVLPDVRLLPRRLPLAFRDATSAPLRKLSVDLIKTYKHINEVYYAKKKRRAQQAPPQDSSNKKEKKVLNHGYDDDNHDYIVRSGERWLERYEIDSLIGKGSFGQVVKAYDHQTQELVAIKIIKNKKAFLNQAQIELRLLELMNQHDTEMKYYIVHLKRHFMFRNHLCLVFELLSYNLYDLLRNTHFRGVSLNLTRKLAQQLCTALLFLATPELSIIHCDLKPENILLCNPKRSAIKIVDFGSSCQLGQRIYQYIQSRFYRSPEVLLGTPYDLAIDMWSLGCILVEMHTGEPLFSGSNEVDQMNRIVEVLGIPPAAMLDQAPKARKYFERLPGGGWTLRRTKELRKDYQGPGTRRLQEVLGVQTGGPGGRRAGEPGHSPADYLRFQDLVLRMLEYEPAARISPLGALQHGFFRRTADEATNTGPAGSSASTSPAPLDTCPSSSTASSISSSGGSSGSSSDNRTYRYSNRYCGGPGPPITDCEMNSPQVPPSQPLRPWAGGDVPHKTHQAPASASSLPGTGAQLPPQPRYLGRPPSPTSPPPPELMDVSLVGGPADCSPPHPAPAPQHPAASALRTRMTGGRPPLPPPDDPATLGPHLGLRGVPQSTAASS
Compound,IC50 (DYRK1A),IC50 (DYRK1B)
"c1cncc(-c2ccnc3ccc(-c4c[nH]c5ncccc45)cc23)c1 [Example 6, 4-(Pyridin-3-yl)-6-{1H-pyrrolo[2,3-b]pyridin-3-yl}quinoline]",< 10 nM,< 10 nM
"CN1CCC(N(C)c2c([N+](=O)[O-])cnc3ccc(-c4c[nH]c5ncccc45)cc23)CC1 [Example 65, N-Methyl-N-(1-methylpiperidin-4-yl)-3-nitro-6-{1H-pyrrolo[2,3-b]pyridin-3-yl}quinolin-4-amine]",10 to 100 nM,10 to 100 nM
"NCCCNC(=O)c1cnc2[nH]cc(-c3cc(Cl)c4ncccc4c3)c2c1 [Example 34, N-(3-Aminopropyl)-3-(8-chloroquinolin-6-yl)-1H-pyrrolo[2,3-b]pyridine-5-carboxamide hydrochloride]",< 10 nM,< 10 nM
"NCCCNC(=O)c1cnc2[nH]cc(-c3cc(F)c4nccc(-c5cccnc5)c4c3)c2c1 [Example 37, N-(3-Aminopropyl)-3-[8-fluoro-4-(pyridin-3-yl)quinolin-6-yl]-1H-pyrrolo[2,3-b]pyridine-5-carboxamide hydrochloride]",< 10 nM,< 10 nM
"CNC(=O)c1cnc2[nH]cc(-c3cc(F)c4nccc(CCc5ccccc5)c4c3)c2c1 [Example 40, 3-[8-Fluoro-4-(2-phenylethyl)quinolin-6-yl]-N-methyl-1H-pyrrolo[2,3-b]pyridine-5-carboxamide]",< 10 nM,< 10 nM

# Other lines, results leading:
IC50 (DYRK1A),IC50 (DYRK1B),Compound
10 to 100 nM,< 10 nM,"CNC(=O)c1cnc2[nH]cc(-c3ccc4ncc([N+](=O)[O-])c(N5CCC[C@H](N)C5)c4c3)c2c1 [Example 53, 3-{4-[(3S)-3-Aminopiperidin-1-yl]-3-nitroquinolin-6-yl}-N-methyl-1H-pyrrolo[2,3-b]pyridine-5-carboxamide hydrochloride]"
< 10 nM,< 10 nM,"CNC(=O)c1cnc2[nH]cc(-c3ccc4ncc(NC(C)=O)c(N5CCOCC5)c4c3)c2c1 [Example 57, 3-[3-Acetamido-4-(morpholin-4-yl)quinolin-6-yl]-N-methyl-1H-pyrrolo[2,3-b]pyridine-5-carboxamide]"
< 10 nM,< 10 nM,"N[C@@H]1CCCN(c2ccnc3c(F)cc(-c4c[nH]c5ncc(CNCc6ccccc6)cc45)cc23)C1 [Example 51, (3R)-1-(6-{5-[(Benzylamino)methyl]-1H-pyrrolo[2,3-b]pyridin-3-yl}-8-fluoroquinolin-4-yl)piperidin-3-amine]"
